# Test results from the supplement of paper PMC10307832.
# What was measured:
# Test in all cases: relative viability (nuclei count vs DMSO), 5 days (fraction); higher = more cells survive
# ABC-1 = tested on: ABC-1
# Summary of the method: (§1)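 Each reported value is a median over duplicate plates. It expresses relative viability: treated-well nuclei count divided by vehicle-well nuclei count. Lung cancer cell lines in 1536-well plates were dosed by pin tool a day after seeding, alone with one drug or with a fixed anchor-drug dose plus five library-drug doses (not always all listed) in √10 steps, and nuclei were counted after 5 days.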
# EKVX = tested on: EKVX
# Summary of the method: as §1
# HCC-44 = tested on: HCC-44
# Summary of the method: as §1
# NCI-H1623 = tested on: NCI-H1623
# Summary of the method: as §1
# NCI-H1648 = tested on: NCI-H1648
# Summary of the method: as §1
# NCI-H1993 = tested on: NCI-H1993
# Summary of the method: as §1
# NCI-H2085 = tested on: NCI-H2085
# Summary of the method: as §1
# NCI-H2126 = tested on: NCI-H2126
# Summary of the method: as §1
# RERF-LC-KJ = tested on: RERF-LC-KJ
# Summary of the method: as §1
compound,measurement,setting,value
O=c1cc(N2CCOCC2)oc2c(-c3cccc4c3sc3ccccc34)cccc12 + COc1cccc2cc(-c3nc([C@H]4CC[C@H](C(=O)O)CC4)n4ncnc(N)c34)[nH]c12 [OSI-027] (partner 0.5 µM),relative viability,ABC-1; first compound 0.01 µM,0.483
same,relative viability,ABC-1; first compound 0.03162 µM,0.436
same,relative viability,ABC-1; first compound 0.1 µM,0.557
same,relative viability,ABC-1; first compound 0.3162 µM,0.523
same,relative viability,ABC-1; first compound 1 µM,0.501
same,relative viability,EKVX; first compound 0.01 µM,0.673
same,relative viability,EKVX; first compound 0.03162 µM,0.715
same,relative viability,EKVX; first compound 0.1 µM,0.659
same,relative viability,EKVX; first compound 0.3162 µM,0.719
same,relative viability,EKVX; first compound 1 µM,0.749
same,relative viability,HCC-44; first compound 0.01 µM,0.524
same,relative viability,HCC-44; first compound 0.03162 µM,0.504
same,relative viability,HCC-44; first compound 0.1 µM,0.588
same,relative viability,HCC-44; first compound 0.3162 µM,0.694
same,relative viability,HCC-44; first compound 1 µM,0.463
same,relative viability,NCI-H1623; first compound 0.01 µM,0.45
same,relative viability,NCI-H1623; first compound 0.03162 µM,0.477
same,relative viability,NCI-H1623; first compound 0.1 µM,0.362
same,relative viability,NCI-H1623; first compound 0.3162 µM,0.407
same,relative viability,NCI-H1623; first compound 1 µM,0.429
same,relative viability,NCI-H1648; first compound 0.01 µM,0.244
same,relative viability,NCI-H1648; first compound 0.03162 µM,0.253
same,relative viability,NCI-H1648; first compound 0.1 µM,0.239
same,relative viability,NCI-H1648; first compound 0.3162 µM,0.235
same,relative viability,NCI-H1648; first compound 1 µM,0.235
same,relative viability,NCI-H1993; first compound 0.01 µM,0.501
same,relative viability,NCI-H1993; first compound 0.03162 µM,0.521
same,relative viability,NCI-H1993; first compound 0.1 µM,0.566
same,relative viability,NCI-H1993; first compound 0.3162 µM,0.532
same,relative viability,NCI-H1993; first compound 1 µM,0.65
same,relative viability,NCI-H2085; first compound 0.01 µM,0.946
same,relative viability,NCI-H2085; first compound 0.03162 µM,0.768
same,relative viability,NCI-H2085; first compound 0.1 µM,0.756
same,relative viability,NCI-H2085; first compound 0.3162 µM,0.827
same,relative viability,NCI-H2085; first compound 1 µM,0.8
same,relative viability,NCI-H2126; first compound 0.01 µM,0.709
same,relative viability,NCI-H2126; first compound 0.03162 µM,0.707
same,relative viability,NCI-H2126; first compound 0.1 µM,0.706
same,relative viability,NCI-H2126; first compound 0.3162 µM,0.772
same,relative viability,NCI-H2126; first compound 1 µM,0.702
same,relative viability,RERF-LC-KJ; first compound 0.01 µM,0.617
same,relative viability,RERF-LC-KJ; first compound 0.03162 µM,0.635
same,relative viability,RERF-LC-KJ; first compound 0.1 µM,0.6
same,relative viability,RERF-LC-KJ; first compound 0.3162 µM,0.615
same,relative viability,RERF-LC-KJ; first compound 1 µM,0.555
CCN(CC)CCCCNc1ncc2cc(-c3cc(OC)cc(OC)c3)c(NC(=O)NC(C)(C)C)nc2n1 + COc1cccc2cc(-c3nc([C@H]4CC[C@H](C(=O)O)CC4)n4ncnc(N)c34)[nH]c12 [OSI-027] (partner 0.5 µM),relative viability,ABC-1; first compound 0.01 µM,0.433
same,relative viability,ABC-1; first compound 0.03162 µM,0.389
same,relative viability,ABC-1; first compound 0.1 µM,0.55
same,relative viability,ABC-1; first compound 0.3162 µM,0.499
same,relative viability,ABC-1; first compound 1 µM,0.402
same,relative viability,EKVX; first compound 0.01 µM,0.734
same,relative viability,EKVX; first compound 0.03162 µM,0.721
same,relative viability,EKVX; first compound 0.1 µM,0.711
same,relative viability,EKVX; first compound 0.3162 µM,0.765
same,relative viability,EKVX; first compound 1 µM,0.671
same,relative viability,HCC-44; first compound 0.01 µM,0.436
same,relative viability,HCC-44; first compound 0.03162 µM,0.587
same,relative viability,HCC-44; first compound 0.1 µM,0.573
same,relative viability,HCC-44; first compound 0.3162 µM,0.519
same,relative viability,HCC-44; first compound 1 µM,0.479
same,relative viability,NCI-H1623; first compound 0.01 µM,0.419
same,relative viability,NCI-H1623; first compound 0.03162 µM,0.385
same,relative viability,NCI-H1623; first compound 0.1 µM,0.381
same,relative viability,NCI-H1623; first compound 0.3162 µM,0.469
same,relative viability,NCI-H1623; first compound 1 µM,0.383
same,relative viability,NCI-H1648; first compound 0.01 µM,0.311
same,relative viability,NCI-H1648; first compound 0.03162 µM,0.228
same,relative viability,NCI-H1648; first compound 0.1 µM,0.26
same,relative viability,NCI-H1648; first compound 0.3162 µM,0.24
same,relative viability,NCI-H1648; first compound 1 µM,0.243
same,relative viability,NCI-H1993; first compound 0.01 µM,0.259
same,relative viability,NCI-H1993; first compound 0.03162 µM,0.559
same,relative viability,NCI-H1993; first compound 0.1 µM,0.532
same,relative viability,NCI-H1993; first compound 0.3162 µM,0.604
same,relative viability,NCI-H1993; first compound 1 µM,0.535
same,relative viability,NCI-H2085; first compound 0.01 µM,0.71
same,relative viability,NCI-H2085; first compound 0.03162 µM,0.759
same,relative viability,NCI-H2085; first compound 0.1 µM,0.867
same,relative viability,NCI-H2085; first compound 0.3162 µM,0.803
same,relative viability,NCI-H2085; first compound 1 µM,0.725
same,relative viability,NCI-H2126; first compound 0.01 µM,0.583
same,relative viability,NCI-H2126; first compound 0.03162 µM,0.768
same,relative viability,NCI-H2126; first compound 0.1 µM,0.704
same,relative viability,NCI-H2126; first compound 0.3162 µM,0.756
same,relative viability,NCI-H2126; first compound 1 µM,0.707
same,relative viability,RERF-LC-KJ; first compound 0.01 µM,0.549
same,relative viability,RERF-LC-KJ; first compound 0.03162 µM,0.678
same,relative viability,RERF-LC-KJ; first compound 0.1 µM,0.536
same,relative viability,RERF-LC-KJ; first compound 0.3162 µM,0.675
same,relative viability,RERF-LC-KJ; first compound 1 µM,0.515
O=c1cc(-c2cccc3c2Sc2ccccc2S3)oc(N2CCOCC2)c1 + COc1cccc2cc(-c3nc([C@H]4CC[C@H](C(=O)O)CC4)n4ncnc(N)c34)[nH]c12 [OSI-027] (partner 0.5 µM),relative viability,ABC-1; first compound 0.08 µM,0.501
same,relative viability,ABC-1; first compound 0.253 µM,0.478
same,relative viability,ABC-1; first compound 0.8 µM,0.609
same,relative viability,ABC-1; first compound 2.53 µM,0.452
same,relative viability,ABC-1; first compound 8 µM,0.445
same,relative viability,EKVX; first compound 0.08 µM,0.722
same,relative viability,EKVX; first compound 0.253 µM,0.812
same,relative viability,EKVX; first compound 0.8 µM,0.678
same,relative viability,EKVX; first compound 2.53 µM,0.715
same,relative viability,EKVX; first compound 8 µM,0.67
same,relative viability,HCC-44; first compound 0.08 µM,0.419
same,relative viability,HCC-44; first compound 0.253 µM,0.561
same,relative viability,HCC-44; first compound 2.53 µM,0.343
same,relative viability,HCC-44; first compound 8 µM,0.499
same,relative viability,NCI-H1623; first compound 0.08 µM,0.593
same,relative viability,NCI-H1623; first compound 0.253 µM,0.447
same,relative viability,NCI-H1623; first compound 0.8 µM,0.346
same,relative viability,NCI-H1623; first compound 2.53 µM,0.431
same,relative viability,NCI-H1623; first compound 8 µM,0.374
same,relative viability,NCI-H1648; first compound 0.08 µM,0.264
same,relative viability,NCI-H1648; first compound 0.253 µM,0.257
same,relative viability,NCI-H1648; first compound 0.8 µM,0.277
same,relative viability,NCI-H1648; first compound 2.53 µM,0.22
same,relative viability,NCI-H1648; first compound 8 µM,0.252
same,relative viability,NCI-H1993; first compound 0.08 µM,0.539
same,relative viability,NCI-H1993; first compound 0.253 µM,0.543
same,relative viability,NCI-H1993; first compound 0.8 µM,0.548
same,relative viability,NCI-H1993; first compound 2.53 µM,0.562
same,relative viability,NCI-H1993; first compound 8 µM,0.637
same,relative viability,NCI-H2085; first compound 0.08 µM,0.635
same,relative viability,NCI-H2085; first compound 0.253 µM,0.88
same,relative viability,NCI-H2085; first compound 0.8 µM,0.695
same,relative viability,NCI-H2085; first compound 2.53 µM,0.512
same,relative viability,NCI-H2085; first compound 8 µM,0.525
same,relative viability,NCI-H2126; first compound 0.08 µM,0.672
same,relative viability,NCI-H2126; first compound 0.253 µM,0.813
same,relative viability,NCI-H2126; first compound 0.8 µM,0.581
same,relative viability,NCI-H2126; first compound 2.53 µM,0.535
same,relative viability,NCI-H2126; first compound 8 µM,0.828
same,relative viability,RERF-LC-KJ; first compound 0.08 µM,0.46
same,relative viability,RERF-LC-KJ; first compound 0.253 µM,0.54
same,relative viability,RERF-LC-KJ; first compound 0.8 µM,0.526
same,relative viability,RERF-LC-KJ; first compound 2.53 µM,0.499
same,relative viability,RERF-LC-KJ; first compound 8 µM,0.494
O=c1cc(N2CCOCC2)oc2c(-c3cccc4c3sc3ccccc34)cccc12 + Cc1cc(Nc2cc(N3CCN(C)CC3)nc(Sc3ccc(NC(=O)C4CC4)cc3)n2)n[nH]1 [Tozasertib] (partner 0.1 µM),relative viability,ABC-1; first compound 0.01 µM,0.186
same,relative viability,ABC-1; first compound 0.03162 µM,0.178
same,relative viability,ABC-1; first compound 0.1 µM,0.222
same,relative viability,ABC-1; first compound 0.3162 µM,0.21
same,relative viability,ABC-1; first compound 1 µM,0.164
same,relative viability,EKVX; first compound 0.01 µM,0.448
same,relative viability,EKVX; first compound 0.03162 µM,0.332
same,relative viability,EKVX; first compound 0.1 µM,0.441
same,relative viability,EKVX; first compound 0.3162 µM,0.343
same,relative viability,EKVX; first compound 1 µM,0.36
same,relative viability,HCC-44; first compound 0.01 µM,0.846
same,relative viability,HCC-44; first compound 0.03162 µM,1.05
same,relative viability,HCC-44; first compound 0.1 µM,1.12
same,relative viability,HCC-44; first compound 0.3162 µM,0.876
same,relative viability,HCC-44; first compound 1 µM,0.91
same,relative viability,NCI-H1623; first compound 0.01 µM,0.472
same,relative viability,NCI-H1623; first compound 0.03162 µM,0.4
same,relative viability,NCI-H1623; first compound 0.1 µM,0.394
same,relative viability,NCI-H1623; first compound 0.3162 µM,0.411
same,relative viability,NCI-H1623; first compound 1 µM,0.343
same,relative viability,NCI-H1648; first compound 0.01 µM,0.503
same,relative viability,NCI-H1648; first compound 0.03162 µM,0.501
same,relative viability,NCI-H1648; first compound 0.1 µM,0.547
same,relative viability,NCI-H1648; first compound 0.3162 µM,0.621
same,relative viability,NCI-H1648; first compound 1 µM,0.504
same,relative viability,NCI-H1993; first compound 0.01 µM,0.554
same,relative viability,NCI-H1993; first compound 0.03162 µM,0.581
same,relative viability,NCI-H1993; first compound 0.1 µM,0.569
same,relative viability,NCI-H1993; first compound 0.3162 µM,0.566
same,relative viability,NCI-H1993; first compound 1 µM,0.62
same,relative viability,NCI-H2085; first compound 0.01 µM,0.841
same,relative viability,NCI-H2085; first compound 0.03162 µM,0.813
same,relative viability,NCI-H2085; first compound 0.1 µM,0.741
same,relative viability,NCI-H2085; first compound 0.3162 µM,0.73
same,relative viability,NCI-H2085; first compound 1 µM,0.77
same,relative viability,NCI-H2126; first compound 0.01 µM,0.781
same,relative viability,NCI-H2126; first compound 0.03162 µM,0.839
same,relative viability,NCI-H2126; first compound 0.1 µM,0.839
same,relative viability,NCI-H2126; first compound 0.3162 µM,0.794
same,relative viability,NCI-H2126; first compound 1 µM,0.789
same,relative viability,RERF-LC-KJ; first compound 0.01 µM,0.482
same,relative viability,RERF-LC-KJ; first compound 0.03162 µM,0.576
same,relative viability,RERF-LC-KJ; first compound 0.1 µM,0.496
same,relative viability,RERF-LC-KJ; first compound 0.3162 µM,0.429
same,relative viability,RERF-LC-KJ; first compound 1 µM,0.522
